In patent publication US20250195342A1, “DRY COMPOSITIONS AND METHODS FOR FORMING STABLE LIQUID CLEANSING FORMULATIONS” (Conopco, Inc., d/b/a UNILEVER, priority 2022, published 2025):

From the text: Silver ion solubility, as referred to herein, is a value derived from a solubility product (Ksp) in water at 25 degrees centigrade, a well known parameter that is reported in numerous sources.

| SMILES | Silver Ion Solubility [Ag+] |
| --- | --- |
| [Br][Ag] [Silver bromide] | Silver bromide 1 5.3 × 10−^13 7.3 × 10″^7 mol/L |
| [Cl][Ag] [Silver chloride] | 1.3 × 10″^5 mol/L |
